Assays:
Assay in all cases: KINOMEscan scanEDGE
Type in all cases: binding
Details in all cases: read-out: % Control (1µM)
CHEK1 = biological target: T1, CHEK1 (Homo sapiens, UniProt O14757)
T1 construct: purchased DiscoveRx KINOMEscan (scanEDGE); Thermo Fisher SelectScreen (Z'-LYTE) for PLK-1
Experimental: (§1) Compound X was assayed at 1 μM in the DiscoveRx KINOMEscan (scanEDGE) assay platform. The results for single-concentration binding interactions are reported as “%Ctrl” (DMSO = 100%Ctrl), where lower numbers indicate stronger hits.

FLT3 = biological target: T2, FLT3 (Homo sapiens, UniProt P36888)
T2 construct: purchased DiscoveRx KINOMEscan (scanEDGE); Thermo Fisher SelectScreen (Z'-LYTE) for PLK-1
Experimental: as §1

PIK3C2B = biological target: T3, PIK3C2B (Homo sapiens, UniProt O00750)
T3 construct: purchased DiscoveRx KINOMEscan (scanEDGE); Thermo Fisher SelectScreen (Z'-LYTE) for PLK-1
Experimental: as §1

PIM3 = biological target: T4, PIM3 (Homo sapiens, UniProt Q86V86)
T4 construct: purchased DiscoveRx KINOMEscan (scanEDGE); Thermo Fisher SelectScreen (Z'-LYTE) for PLK-1
Experimental: as §1

PAK1 = biological target: T5, PAK1 (Homo sapiens, UniProt Q13153)
T5 construct: purchased DiscoveRx KINOMEscan (scanEDGE); Thermo Fisher SelectScreen (Z'-LYTE) for PLK-1
Experimental: as §1

[1] = biological target: T6, TYK2(JH1domain-catalytic) (Homo sapiens, UniProt P29597)
T6 construct: TYK2(JH1domain-catalytic); purchased DiscoveRx KINOMEscan (scanEDGE); Thermo Fisher SelectScreen (Z'-LYTE) for PLK-1
Experimental: as §1

BRAF = biological target: T7, BRAF (Homo sapiens, UniProt P15056)
T7 construct: purchased DiscoveRx KINOMEscan (scanEDGE); Thermo Fisher SelectScreen (Z'-LYTE) for PLK-1
Experimental: as §1

AXL = biological target: T8, AXL (Homo sapiens, UniProt P30530)
T8 construct: purchased DiscoveRx KINOMEscan (scanEDGE); Thermo Fisher SelectScreen (Z'-LYTE) for PLK-1
Experimental: as §1

YANK3 = biological target: T9, YANK3 (Homo sapiens, UniProt Q86UX6)
T9 construct: purchased DiscoveRx (DiscoverX)
Experimental: as §1

KIT(V559D,T670I) = biological target: T10, KIT(V559D,T670I) (Homo sapiens, UniProt P10721, T670I/V559D)
T10 construct: purchased DiscoveRx KINOMEscan (scanEDGE); Thermo Fisher SelectScreen (Z'-LYTE) for PLK-1
Experimental: as §1

AURKB = biological target: T11, AURKB (Homo sapiens, UniProt Q96GD4)
T11 construct: purchased DiscoveRx KINOMEscan (scanEDGE); Thermo Fisher SelectScreen (Z'-LYTE) for PLK-1
Experimental: as §1

FGFR2 = biological target: T12, FGFR2 (Homo sapiens, UniProt P21802)
T12 construct: purchased DiscoveRx KINOMEscan (scanEDGE); Thermo Fisher SelectScreen (Z'-LYTE) for PLK-1
Experimental: as §1

ERK1 = biological target: T13, ERK1 (Homo sapiens, UniProt P27361)
T13 construct: purchased DiscoveRx KINOMEscan (scanEDGE); Thermo Fisher SelectScreen (Z'-LYTE) for PLK-1
Experimental: as §1

CSF1R = biological target: T14, CSF1R (Homo sapiens, UniProt P07333)
T14 construct: purchased DiscoveRx KINOMEscan (scanEDGE); Thermo Fisher SelectScreen (Z'-LYTE) for PLK-1
Experimental: as §1

p38-alpha = biological target: T15, p38-alpha (Homo sapiens, UniProt Q16539)
T15 construct: purchased DiscoveRx KINOMEscan (scanEDGE); Thermo Fisher SelectScreen (Z'-LYTE) for PLK-1
Experimental: as §1

MAP3K4 = biological target: T16, MAP3K4 (Homo sapiens, UniProt Q9Y6R4)
T16 construct: purchased DiscoveRx KINOMEscan (scanEDGE); Thermo Fisher SelectScreen (Z'-LYTE) for PLK-1
Experimental: as §1

FGFR3 = biological target: T17, FGFR3 (Homo sapiens, UniProt P22607)
T17 construct: purchased DiscoveRx KINOMEscan (scanEDGE); Thermo Fisher SelectScreen (Z'-LYTE) for PLK-1
Experimental: as §1

MEK1 = biological target: T18, MEK1 (Homo sapiens, UniProt Q02750)
T18 construct: purchased DiscoveRx KINOMEscan (scanEDGE); Thermo Fisher SelectScreen (Z'-LYTE) for PLK-1
Experimental: as §1

ABL1-nonphosphorylated = biological target: T19, ABL1-nonphosphorylated (Homo sapiens, UniProt P00519)
T19 construct: purchased DiscoveRx KINOMEscan (scanEDGE); Thermo Fisher SelectScreen (Z'-LYTE) for PLK-1
Experimental: as §1

CDK2 = biological target: T20, CDK2 (Homo sapiens, UniProt P24941)
T20 construct: purchased DiscoveRx KINOMEscan (scanEDGE); Thermo Fisher SelectScreen (Z'-LYTE) for PLK-1
Experimental: as §1

KIT = biological target: T21, KIT (Homo sapiens, UniProt P10721)
T21 construct: purchased DiscoveRx (DiscoverX)
Experimental: as §1

DCAMKL1 = biological target: T22, DCAMKL1 (Homo sapiens, UniProt O15075)
T22 construct: purchased DiscoveRx KINOMEscan (scanEDGE); Thermo Fisher SelectScreen (Z'-LYTE) for PLK-1
Experimental: as §1

PIM2 = biological target: T23, PIM2 (Homo sapiens, UniProt Q9P1W9)
T23 construct: purchased DiscoveRx KINOMEscan (scanEDGE); Thermo Fisher SelectScreen (Z'-LYTE) for PLK-1
Experimental: as §1

PAK4 = biological target: T24, PAK4 (Homo sapiens, UniProt O96013)
T24 construct: purchased DiscoveRx KINOMEscan (scanEDGE); Thermo Fisher SelectScreen (Z'-LYTE) for PLK-1
Experimental: as §1

MEK2 = biological target: T25, MEK2 (Homo sapiens, UniProt P36507)
T25 construct: purchased DiscoveRx KINOMEscan (scanEDGE); Thermo Fisher SelectScreen (Z'-LYTE) for PLK-1
Experimental: as §1

ZAP70 = biological target: T26, ZAP70 (Homo sapiens, UniProt P43403)
T26 construct: purchased DiscoveRx (DiscoverX)
Experimental: as §1

CDK11 = biological target: T27, CDK11 (Homo sapiens, UniProt Q9BWU1)
T27 construct: purchased DiscoveRx KINOMEscan (scanEDGE); Thermo Fisher SelectScreen (Z'-LYTE) for PLK-1
Experimental: as §1

AKT2 = biological target: T28, AKT2 (Homo sapiens, UniProt P31751)
T28 construct: purchased DiscoveRx KINOMEscan (scanEDGE); Thermo Fisher SelectScreen (Z'-LYTE) for PLK-1
Experimental: as §1

MAPKAPK2 = biological target: T29, MAPKAPK2 (Homo sapiens, UniProt P49137)
T29 construct: purchased DiscoveRx KINOMEscan (scanEDGE); Thermo Fisher SelectScreen (Z'-LYTE) for PLK-1
Experimental: as §1

BMPR2 = biological target: T30, BMPR2 (Homo sapiens, UniProt Q13873)
T30 construct: purchased DiscoveRx KINOMEscan (scanEDGE); Thermo Fisher SelectScreen (Z'-LYTE) for PLK-1
Experimental: as §1

SRPK3 = biological target: T31, SRPK3 (Homo sapiens, UniProt Q9UPE1)
T31 construct: purchased DiscoveRx KINOMEscan (scanEDGE); Thermo Fisher SelectScreen (Z'-LYTE) for PLK-1
Experimental: as §1

[2] = biological target: T32, JAK3(JH1domain-catalytic) (Homo sapiens, UniProt P52333)
T32 construct: JAK3(JH1domain-catalytic); purchased DiscoveRx KINOMEscan (scanEDGE); Thermo Fisher SelectScreen (Z'-LYTE) for PLK-1
Experimental: as §1

IKK-alpha = biological target: T33, IKK-alpha (Homo sapiens, UniProt O15111)
T33 construct: purchased DiscoveRx KINOMEscan (scanEDGE); Thermo Fisher SelectScreen (Z'-LYTE) for PLK-1
Experimental: as §1

ADCK3 = biological target: T34, ADCK3 (Homo sapiens, UniProt Q8NI60)
T34 construct: purchased DiscoveRx KINOMEscan (scanEDGE); Thermo Fisher SelectScreen (Z'-LYTE) for PLK-1
Experimental: as §1

DYRK1B = biological target: T35, DYRK1B (Homo sapiens, UniProt Q9Y463)
T35 construct: purchased DiscoveRx KINOMEscan (scanEDGE); Thermo Fisher SelectScreen (Z'-LYTE) for PLK-1
Experimental: as §1

EPHA2 = biological target: T36, EPHA2 (Homo sapiens, UniProt P29317)
T36 construct: purchased DiscoveRx KINOMEscan (scanEDGE); Thermo Fisher SelectScreen (Z'-LYTE) for PLK-1
Experimental: as §1

PIK3CG = biological target: T37, PIK3CG (Homo sapiens, UniProt P48736)
T37 construct: purchased DiscoveRx KINOMEscan (scanEDGE); Thermo Fisher SelectScreen (Z'-LYTE) for PLK-1
Experimental: as §1

BTK = biological target: T38, BTK (Homo sapiens, UniProt Q06187)
T38 construct: purchased DiscoveRx KINOMEscan (scanEDGE); Thermo Fisher SelectScreen (Z'-LYTE) for PLK-1
Experimental: as §1

KIT(D816V) = biological target: T39, KIT(D816V) (Homo sapiens, UniProt P10721, D816V)
T39 construct: purchased DiscoveRx KINOMEscan (scanEDGE); Thermo Fisher SelectScreen (Z'-LYTE) for PLK-1
Experimental: as §1

MLK1 = biological target: T40, MLK1 (Homo sapiens, UniProt P80192)
T40 construct: purchased DiscoveRx KINOMEscan (scanEDGE); Thermo Fisher SelectScreen (Z'-LYTE) for PLK-1
Experimental: as §1

SNARK = biological target: T41, SNARK (Homo sapiens, UniProt Q9H093)
T41 construct: purchased DiscoveRx KINOMEscan (scanEDGE); Thermo Fisher SelectScreen (Z'-LYTE) for PLK-1
Experimental: as §1

T3 sequence (O00750 whole entry): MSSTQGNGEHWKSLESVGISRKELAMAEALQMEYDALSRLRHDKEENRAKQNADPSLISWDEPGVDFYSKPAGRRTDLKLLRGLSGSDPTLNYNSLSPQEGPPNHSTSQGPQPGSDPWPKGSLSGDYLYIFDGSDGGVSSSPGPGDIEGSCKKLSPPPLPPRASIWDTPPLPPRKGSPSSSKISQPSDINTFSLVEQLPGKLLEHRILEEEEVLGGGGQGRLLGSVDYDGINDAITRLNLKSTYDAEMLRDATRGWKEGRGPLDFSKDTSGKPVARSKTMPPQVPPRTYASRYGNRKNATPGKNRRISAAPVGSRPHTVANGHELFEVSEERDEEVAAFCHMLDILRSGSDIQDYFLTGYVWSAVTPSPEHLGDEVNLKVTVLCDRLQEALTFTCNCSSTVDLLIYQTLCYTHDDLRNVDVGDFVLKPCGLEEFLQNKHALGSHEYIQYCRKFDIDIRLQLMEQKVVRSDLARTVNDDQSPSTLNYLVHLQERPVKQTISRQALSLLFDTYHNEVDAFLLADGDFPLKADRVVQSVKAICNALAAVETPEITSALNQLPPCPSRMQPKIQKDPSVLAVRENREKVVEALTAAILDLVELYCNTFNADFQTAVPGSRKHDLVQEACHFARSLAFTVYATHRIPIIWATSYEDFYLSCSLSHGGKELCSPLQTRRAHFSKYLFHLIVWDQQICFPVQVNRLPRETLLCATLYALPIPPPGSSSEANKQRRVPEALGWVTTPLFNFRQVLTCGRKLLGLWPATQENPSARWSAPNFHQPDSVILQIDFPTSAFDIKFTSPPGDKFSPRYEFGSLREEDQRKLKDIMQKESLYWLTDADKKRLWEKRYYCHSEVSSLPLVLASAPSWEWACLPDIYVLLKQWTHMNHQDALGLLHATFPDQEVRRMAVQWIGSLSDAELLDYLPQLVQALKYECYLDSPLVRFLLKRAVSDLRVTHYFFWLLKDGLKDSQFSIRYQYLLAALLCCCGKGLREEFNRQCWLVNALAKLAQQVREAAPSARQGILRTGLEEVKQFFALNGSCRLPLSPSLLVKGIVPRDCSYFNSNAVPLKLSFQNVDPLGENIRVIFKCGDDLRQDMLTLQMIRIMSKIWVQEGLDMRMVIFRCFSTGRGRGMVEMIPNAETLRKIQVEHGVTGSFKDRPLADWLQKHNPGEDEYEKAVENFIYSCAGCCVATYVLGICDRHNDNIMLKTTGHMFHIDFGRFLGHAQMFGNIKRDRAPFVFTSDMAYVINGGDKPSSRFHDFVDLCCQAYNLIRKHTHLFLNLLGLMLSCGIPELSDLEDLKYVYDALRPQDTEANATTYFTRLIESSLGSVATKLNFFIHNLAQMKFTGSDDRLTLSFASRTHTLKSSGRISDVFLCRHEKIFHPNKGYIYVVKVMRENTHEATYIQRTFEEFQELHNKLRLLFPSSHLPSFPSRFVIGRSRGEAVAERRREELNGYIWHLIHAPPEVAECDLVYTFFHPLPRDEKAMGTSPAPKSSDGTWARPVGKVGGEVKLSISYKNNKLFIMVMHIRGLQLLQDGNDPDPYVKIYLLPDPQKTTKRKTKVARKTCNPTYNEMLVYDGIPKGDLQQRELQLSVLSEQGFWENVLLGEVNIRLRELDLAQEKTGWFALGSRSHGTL
T9 sequence (Q86UX6 whole entry): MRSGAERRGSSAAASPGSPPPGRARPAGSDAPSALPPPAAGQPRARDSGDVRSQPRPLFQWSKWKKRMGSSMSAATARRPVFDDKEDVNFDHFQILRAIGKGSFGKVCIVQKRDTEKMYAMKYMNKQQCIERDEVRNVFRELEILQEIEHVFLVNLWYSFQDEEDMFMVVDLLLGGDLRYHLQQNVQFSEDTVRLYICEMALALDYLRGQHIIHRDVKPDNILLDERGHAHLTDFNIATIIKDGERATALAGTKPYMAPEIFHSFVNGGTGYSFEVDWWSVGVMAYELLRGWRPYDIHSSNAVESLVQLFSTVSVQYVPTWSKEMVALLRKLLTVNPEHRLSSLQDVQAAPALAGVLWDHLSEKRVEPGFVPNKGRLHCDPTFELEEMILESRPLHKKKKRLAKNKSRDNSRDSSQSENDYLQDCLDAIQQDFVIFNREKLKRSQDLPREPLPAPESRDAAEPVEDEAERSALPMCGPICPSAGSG
T22 sequence (O15075 whole entry): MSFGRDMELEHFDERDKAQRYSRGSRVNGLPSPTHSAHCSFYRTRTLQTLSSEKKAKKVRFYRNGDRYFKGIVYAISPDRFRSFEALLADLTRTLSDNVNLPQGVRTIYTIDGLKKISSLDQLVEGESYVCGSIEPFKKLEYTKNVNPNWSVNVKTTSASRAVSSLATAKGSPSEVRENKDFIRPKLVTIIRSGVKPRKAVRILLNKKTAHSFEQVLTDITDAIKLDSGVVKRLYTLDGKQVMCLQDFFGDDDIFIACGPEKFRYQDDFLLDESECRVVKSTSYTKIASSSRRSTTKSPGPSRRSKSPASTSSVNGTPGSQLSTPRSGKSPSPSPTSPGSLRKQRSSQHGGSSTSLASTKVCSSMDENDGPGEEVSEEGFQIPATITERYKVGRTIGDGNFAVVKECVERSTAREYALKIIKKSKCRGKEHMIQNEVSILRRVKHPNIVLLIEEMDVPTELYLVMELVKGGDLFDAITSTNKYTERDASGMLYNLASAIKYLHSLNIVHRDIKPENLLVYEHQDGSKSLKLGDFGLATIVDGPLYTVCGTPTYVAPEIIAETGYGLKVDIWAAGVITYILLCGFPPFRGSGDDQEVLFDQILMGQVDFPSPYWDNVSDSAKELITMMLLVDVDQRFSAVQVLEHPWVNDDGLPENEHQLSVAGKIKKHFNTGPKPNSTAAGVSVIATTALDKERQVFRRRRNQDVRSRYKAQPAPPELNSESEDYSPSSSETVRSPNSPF
T13 sequence (P27361 whole entry): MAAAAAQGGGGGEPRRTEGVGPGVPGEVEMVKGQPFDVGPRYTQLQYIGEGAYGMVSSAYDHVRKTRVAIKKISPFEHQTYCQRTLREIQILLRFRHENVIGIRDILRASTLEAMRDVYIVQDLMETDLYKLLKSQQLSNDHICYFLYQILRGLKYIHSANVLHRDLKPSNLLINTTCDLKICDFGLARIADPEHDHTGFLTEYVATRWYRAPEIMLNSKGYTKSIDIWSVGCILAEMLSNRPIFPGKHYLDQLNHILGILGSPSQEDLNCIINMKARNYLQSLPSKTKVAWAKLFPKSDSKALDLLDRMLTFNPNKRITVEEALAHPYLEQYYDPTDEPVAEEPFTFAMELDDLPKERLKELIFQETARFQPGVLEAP
T5 sequence (Q13153 whole entry): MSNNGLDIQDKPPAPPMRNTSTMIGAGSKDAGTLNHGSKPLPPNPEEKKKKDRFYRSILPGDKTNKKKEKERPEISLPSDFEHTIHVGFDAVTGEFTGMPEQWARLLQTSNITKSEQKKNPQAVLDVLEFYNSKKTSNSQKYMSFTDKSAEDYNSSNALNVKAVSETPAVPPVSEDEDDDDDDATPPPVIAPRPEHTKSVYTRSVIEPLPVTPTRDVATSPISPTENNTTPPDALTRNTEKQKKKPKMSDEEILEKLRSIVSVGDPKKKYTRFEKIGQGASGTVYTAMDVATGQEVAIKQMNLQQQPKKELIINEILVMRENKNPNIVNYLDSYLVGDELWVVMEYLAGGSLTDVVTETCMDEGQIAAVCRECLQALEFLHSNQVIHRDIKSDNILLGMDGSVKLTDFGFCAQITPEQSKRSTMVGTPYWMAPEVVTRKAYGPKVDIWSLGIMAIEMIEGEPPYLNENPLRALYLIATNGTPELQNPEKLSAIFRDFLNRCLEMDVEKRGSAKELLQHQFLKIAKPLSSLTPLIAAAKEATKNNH
T38 sequence (Q06187 whole entry): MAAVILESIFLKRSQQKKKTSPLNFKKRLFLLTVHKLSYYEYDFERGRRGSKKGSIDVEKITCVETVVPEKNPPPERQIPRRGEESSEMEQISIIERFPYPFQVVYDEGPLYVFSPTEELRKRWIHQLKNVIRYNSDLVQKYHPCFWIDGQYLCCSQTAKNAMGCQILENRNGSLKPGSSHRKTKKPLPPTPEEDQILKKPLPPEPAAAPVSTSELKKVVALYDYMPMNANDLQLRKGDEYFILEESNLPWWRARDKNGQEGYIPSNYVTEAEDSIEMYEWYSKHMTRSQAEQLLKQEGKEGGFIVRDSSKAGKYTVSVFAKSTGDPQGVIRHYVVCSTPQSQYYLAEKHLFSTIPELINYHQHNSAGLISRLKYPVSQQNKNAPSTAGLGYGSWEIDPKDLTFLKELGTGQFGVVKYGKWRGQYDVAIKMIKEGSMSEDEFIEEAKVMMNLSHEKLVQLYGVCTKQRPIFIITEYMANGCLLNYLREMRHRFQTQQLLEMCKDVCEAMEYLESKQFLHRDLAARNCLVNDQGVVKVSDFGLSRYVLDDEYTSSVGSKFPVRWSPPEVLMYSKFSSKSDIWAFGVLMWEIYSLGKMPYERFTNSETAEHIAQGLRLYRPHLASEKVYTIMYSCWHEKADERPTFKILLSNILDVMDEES
T6 sequence (P29597 897-1176 limits assumed): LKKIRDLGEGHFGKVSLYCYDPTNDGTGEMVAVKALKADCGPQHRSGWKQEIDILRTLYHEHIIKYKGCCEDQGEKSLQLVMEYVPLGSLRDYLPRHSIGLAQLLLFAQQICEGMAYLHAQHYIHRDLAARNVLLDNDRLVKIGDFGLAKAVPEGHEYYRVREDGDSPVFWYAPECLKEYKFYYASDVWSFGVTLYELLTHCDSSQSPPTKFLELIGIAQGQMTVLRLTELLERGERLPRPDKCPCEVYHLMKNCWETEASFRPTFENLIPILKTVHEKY

`CCOc1cc(C2CCN(C)CC2)ccc1Nc1ncc2c(n1)N(Cc1cc(C)cs1)[C@H](CC)C(=O)N2C` [16k, (R)-2-((2-Ethoxy-4-(1-methylpiperidin-4-yl)phenyl)amino)-7-ethyl-5-methyl-8-((4-methylthiophen-2-yl)methyl)-7,8-dihydropteridin-6(5H)-one] showed a remaining binding at 1 µM (CHEK1) of 100%, a remaining binding at 1 µM (FLT3) of 100% and a remaining binding at 1 µM (PIK3C2B) of 88%. For the same molecule, the remaining binding at 1 µM (PIM3) was 100%, the remaining binding at 1 µM (PAK1) was 100% and the remaining binding at 1 µM [1] was 100%. It also gave a remaining binding at 1 µM (BRAF) of 100%, a remaining binding at 1 µM (AXL) of 98% and a remaining binding at 1 µM (YANK3) of 100%. The remaining binding at 1 µM (KIT(V559D,T670I)) was 100%, the remaining binding at 1 µM (AURKB) was 86% and the remaining binding at 1 µM (FGFR2) was 100%. The remaining binding at 1 µM (ERK1) was 100%, the remaining binding at 1 µM (CSF1R) was 100% and the remaining binding at 1 µM (p38-alpha) was 92%. The remaining binding at 1 µM (MAP3K4) was 92%, the remaining binding at 1 µM (FGFR3) was 98% and the remaining binding at 1 µM (MEK1) was 100%. The remaining binding at 1 µM (ABL1-nonphosphorylated) was 84%, the remaining binding at 1 µM (CDK2) was 100% and the remaining binding at 1 µM (KIT) was 100%. It also gave a remaining binding at 1 µM (DCAMKL1) of 100%, a remaining binding at 1 µM (PIM2) of 86% and a remaining binding at 1 µM (PAK4) of 100%. It also gave a remaining binding at 1 µM (MEK2) of 100%, a remaining binding at 1 µM (ZAP70) of 94% and a remaining binding at 1 µM (CDK11) of 93%. The remaining binding at 1 µM (AKT2) was 100%, the remaining binding at 1 µM (MAPKAPK2) was 100% and the remaining binding at 1 µM (BMPR2) was 100%. The remaining binding at 1 µM (SRPK3) was 100%, the remaining binding at 1 µM [2] was 100% and the remaining binding at 1 µM (IKK-alpha) was 97%. It also gave a remaining binding at 1 µM (ADCK3) of 100%, a remaining binding at 1 µM (DYRK1B) of 63% and a remaining binding at 1 µM (EPHA2) of 100%. For the same molecule, the remaining binding at 1 µM (PIK3CG) was 98%, the remaining binding at 1 µM (BTK) was 100% and the remaining binding at 1 µM (KIT(D816V)) was 100%. It also gave a remaining binding at 1 µM (MLK1) of 100% and a remaining binding at 1 µM (SNARK) of 100%.
